Reference: ChEMBL document CHEMBL1128107, “Amino acid-derived piperidides as novel CCKB ligands with anxiolytic-like properties” (Bioorg Med Chem Lett, 1995)
Activity calls are given as the source filed them. No cut-off for these calls is given here.

Experiments:
[1] = target: T1, Cholecystokinin receptor type A (Cavia porcellus, UniProt Q63931); assay: Inhibitory activity towards binding of [125I]Bolton-Hunter-CCK-8 to CCKA receptor in guinea pig pancreatic tissue
T1 sequence (Q63931 whole entry): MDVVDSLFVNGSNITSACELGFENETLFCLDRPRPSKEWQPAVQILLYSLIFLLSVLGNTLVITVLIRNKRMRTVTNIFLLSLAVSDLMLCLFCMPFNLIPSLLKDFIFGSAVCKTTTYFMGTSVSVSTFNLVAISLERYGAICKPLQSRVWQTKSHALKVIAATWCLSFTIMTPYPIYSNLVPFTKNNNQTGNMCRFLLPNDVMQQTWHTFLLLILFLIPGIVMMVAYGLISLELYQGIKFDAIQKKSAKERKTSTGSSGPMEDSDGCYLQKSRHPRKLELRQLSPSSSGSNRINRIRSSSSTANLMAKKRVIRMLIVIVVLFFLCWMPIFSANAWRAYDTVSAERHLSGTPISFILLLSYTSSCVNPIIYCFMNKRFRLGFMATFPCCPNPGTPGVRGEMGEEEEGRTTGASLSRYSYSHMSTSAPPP

Mus musculus [2] = assay: In vivo anxiolytic activity in mouse upon ip administration; significant activity; assay type: functional, organism-based
NCI-H345 = assay: Ability to block CCK-8-induced calcium mobilization in NCI-H345 cells; assay type: functional, cell-based; details: Homo sapiens
Mus musculus [3] = assay: In vivo anxiolytic activity in mouse upon ip administration; less affinity and selectivity; assay type: functional, organism-based

Structure (SMILES)	IC50 [1]	other results
Cc1cccc(NC(=O)N[C@H](CC(C)C)C(=O)N2CCC(C(=O)c3ccccc3)CC2)c1	2 µM	
Cc1cccc(NC(=O)N[C@H](COCc2ccccc2)C(=O)N2CCC(Cc3ccccc3)CC2)c1	3.4 µM	
Cc1cccc(NC(=O)N[C@H](CS(=O)(=O)Cc2ccccc2)C(=O)N2CCC(C(=O)c3ccccc3)CC2)c1	1.1 µM	
CC(C)C[C@H](NC(=O)[C@H](Cc1c[nH]c2ccccc12)NC(=O)OC(C)(C)C)C(=O)N1CCC(Cc2ccccc2)CC1	0.2 µM	
Cc1cccc(NC(=O)N[C@H](CCC(=O)OCc2ccccc2)C(=O)N2CCC(NC(=O)c3ccccc3)CC2)c1	0.97 µM	
Cc1cccc(NC(=O)N[C@H](CCC(=O)OCc2ccccc2)C(=O)N2CCC(C(=O)Nc3ccccc3)CC2)c1	0.69 µM	
Cc1cccc(NC(=O)N[C@H](CCCc2ccccc2)C(=O)N2CCC(C(=O)c3ccccc3)CC2)c1	1.8 µM	
CC(=O)C1CCN(C(=O)[C@@H](COCc2ccccc2)NC(=O)Nc2cccc(C)c2)CC1	1.3 µM	
CC(Cc1c[nH]c2ccccc12)(NC(=O)OC1[C@H]2C[C@@H]3C[C@@H](C[C@H]1C3)C2)C(=O)N1CCC(C(=O)c2ccccc2)CC1 (stereo partly specified)	1.7 µM	
CC1(C)C2CCC1(COC(=O)N[C@](C)(Cc1c[nH]c3ccccc13)C(=O)NC[C@@H](NC(=O)CCC(=O)O)c1ccccc1)CC2		Activity (Mus musculus [2]): significant activity; IC50 (NCI-H345): 0.002 µM
Cc1cccc(NC(=O)N[C@H](C[S+]([O-])Cc2ccccc2)C(=O)N2CCC(C(=O)c3ccccc3)CC2)c1 (stereo partly specified)	0.8 µM	
Cc1cccc(NC(=O)N[C@H](CC(=O)OCc2ccccc2)C(=O)N2CCC(C(=O)c3ccccc3)CC2)c1	1.3 µM	
Cc1cccc(NC(=O)N[C@H](COC(=O)N(C)C)C(=O)N2CCC(C(=O)c3ccccc3)CC2)c1	1.3 µM	
Cc1cccc(NC(=O)N[C@H](CCc2ccccc2)C(=O)N2CCC(C(=O)c3ccccc3)CC2)c1	2.2 µM	
Cc1cccc(NC(=O)N[C@H](COC(=O)N2CCOCC2)C(=O)N2CCC(C(=O)c3ccccc3)CC2)c1	1.5 µM	
Cc1cccc(NC(=O)N[C@H](COCc2ccccc2)C(=O)N2CCC(C(=O)c3ccc(F)cc3)CC2)c1	0.42 µM	
CC(C)C[C@H](NC(=O)OC(C)(C)C)C(=O)N1CCC(C(=O)c2ccccc2)CC1	> 2.1 µM	
Cc1cccc(NC(=O)N[C@H](CCC(=O)OCc2ccccc2)C(=O)N2CCN(C(=O)c3ccccc3)CC2)c1	1.5 µM	
Cc1cccc(NC(=O)N[C@H](COC(=O)N2CCCC2)C(=O)N2CCC(C(=O)c3ccccc3)CC2)c1	1.4 µM	Activity (Mus musculus [2]): Active; IC50 (NCI-H345): 0.22 µM
Cc1cccc(NC(=O)N[C@H](CCC(=O)OCc2ccccc2)C(=O)N2CCC(C(=O)c3ccccc3)CC2)c1	0.9 µM	
Cc1cccc(NC(=O)N[C@H](CCC(=O)N2CCCC2)C(=O)N2CCC(C(=O)c3ccccc3)CC2)c1	1.9 µM	IC50 (NCI-H345): 0.251 µM; Activity (Mus musculus [3]): Weak activity
Cc1cccc(NC(=O)N[C@H](COC(=O)Nc2ccccc2)C(=O)N2CCC(C(=O)c3ccccc3)CC2)c1	0.29 µM	
Cc1cccc(NC(=O)N[C@H](COCc2ccccc2)C(=O)N2CCCC(C(=O)Nc3ccccc3)C2)c1 (stereo partly specified)	2.2 µM	

Continued, in another order:

IC50 [1]	Structure (SMILES)	other results
1.8 µM	Cc1cccc(NC(=O)N[C@H](CCC(=O)O)C(=O)N2CCC(C(=O)c3ccccc3)CC2)c1	
0.5 µM	Cc1cccc(NC(=O)N[C@H](COCc2ccccc2)C(=O)N2CCC(C(=O)Nc3ccccc3)CC2)c1	
2.5 µM	CCCC[C@@H](NC(=O)Nc1cccc(C)c1)C(=O)N1CCC(C(=O)c2ccccc2)CC1	
0.25 µM	Cc1cccc(NC(=O)N[C@H](COC(=O)N2CCCC2)C(=O)N2CCC(C(=O)Nc3ccccc3)CC2)c1	Activity (Mus musculus [2]): Active; IC50 (NCI-H345): 0.115 µM
1.3 µM	Cc1cccc(NC(=O)N[C@@H](C(=O)N2CCC(C(=O)c3ccccc3)CC2)[C@@H](C)OCc2ccccc2)c1	
1.3 µM	Cc1cccc(NC(=O)N[C@H](CSCc2ccccc2)C(=O)N2CCC(C(=O)c3ccccc3)CC2)c1	
5.2 µM	Cc1cccc(NC(=O)N[C@@H](CC(C)C)C(=O)N2CCC(C(=O)c3ccccc3)CC2)c1	
0.64 µM	CC(C)C[C@H](NC(=O)[C@H](Cc1c[nH]c2ccccc12)NC(=O)OC(C)(C)C)C(=O)N1CCC(C(=O)c2ccccc2)CC1	
1.4 µM	Cc1cccc(NC(=O)N[C@H](Cc2c[nH]c3ccccc23)C(=O)N2CCC(C(=O)c3ccccc3)CC2)c1	
2.4 µM	Cc1cccc(NC(=O)N[C@H](COCc2ccccc2)C(=O)N2CCC(C(=O)c3ccccc3)CC2)c1	
4.5 µM	CC(C)(C)OC(=O)N[C@@H](Cc1c[nH]c2ccccc12)C(=O)N1CCC(C(=O)c2ccccc2)CC1	
